# Biological target: Mitogen-activated protein kinase 14 (Homo sapiens, UniProt Q16539)
# Assay: Inhibition of human p38 MAPK alpha incubated for 1 hr by photometric method
# Details: not given
# Sequence of Mitogen-activated protein kinase 14 (Q16539 whole entry): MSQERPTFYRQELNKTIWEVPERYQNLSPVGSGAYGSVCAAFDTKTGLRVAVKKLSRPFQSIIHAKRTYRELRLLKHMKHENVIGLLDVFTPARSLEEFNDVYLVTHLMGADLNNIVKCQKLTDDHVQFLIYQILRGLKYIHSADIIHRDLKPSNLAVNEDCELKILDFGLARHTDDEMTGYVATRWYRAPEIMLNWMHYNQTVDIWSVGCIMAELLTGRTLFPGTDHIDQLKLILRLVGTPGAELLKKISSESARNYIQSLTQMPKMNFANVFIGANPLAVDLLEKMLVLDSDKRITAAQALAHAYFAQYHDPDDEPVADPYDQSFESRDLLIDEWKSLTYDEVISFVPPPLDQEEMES
row,Compound,IC50 [µM]
1,CN(CCc1ccccc1)C(=O)c1ccc2c(c1)C(=O)c1ccc(Nc3ccc(F)cc3F)cc1CC2,0.39
2,Nc1ccccc1Nc1ccc2c(c1)CCc1ccc(C(=O)NCCN3CCNCC3)cc1C2=O,0.018
3,O=C1c2ccc(Nc3ccc(F)cc3F)cc2CCc2ccc(C(=O)N3CCCCC3)cc21,0.12
4,CCCCCCCCNC(=O)c1ccc2c(c1)C(=O)c1ccc(Nc3ccc(F)cc3F)cc1CC2,0.39
5,CN(C)C(=O)c1ccc2c(c1)C(=O)c1ccc(Nc3ccc(F)cc3F)cc1CC2,0.095
6,O=C(NCCc1ccc(F)cc1)c1ccc2c(c1)C(=O)c1ccc(Nc3ccc(F)cc3F)cc1CC2,0.021
7,O=C(NCCc1ccccc1)c1ccc2c(c1)C(=O)c1ccc(Nc3ccc(F)cc3F)cc1CC2,0.021
8,O=C(NCCCc1ccccc1)c1ccc2c(c1)C(=O)c1ccc(Nc3ccc(F)cc3F)cc1CC2,0.05
9,CC(NC(=O)c1ccc2c(c1)C(=O)c1ccc(Nc3ccc(F)cc3F)cc1CC2)C1CCCCC1 (centres undefined),0.022
10,Nc1ccccc1Nc1ccc2c(c1)CCc1ccc(C(=O)NCCc3ccccc3)cc1C2=O,0.02
11,Nc1ccccc1Nc1ccc2c(c1)CCc1ccc(C(=O)NCCCC[C@H](N)C(=O)O)cc1C2=O,0.017
12,O=C(NCCc1c[nH]c2ccccc12)c1ccc2c(c1)C(=O)c1ccc(Nc3ccc(F)cc3F)cc1CC2,0.028
13,Nc1ccccc1Nc1ccc2c(c1)CCc1ccc(C(=O)NCCc3cnc[nH]3)cc1C2=O,0.026
14,CCCCCCCCCCCCCCCCNC(=O)c1ccc2c(c1)C(=O)c1ccc(Nc3ccc(F)cc3F)cc1CC2,> 1
15,Nc1ccccc1Nc1ccc2c(c1)CCc1ccc(C(=O)N[C@@H](CCC(=O)O)C(=O)O)cc1C2=O,0.027

# The remaining compounds from weak to strong by IC50, led by results:
row,IC50 [µM],Compound
1,0.017,COC(=O)CC[C@H](NC(=O)c1ccc2c(c1)C(=O)c1ccc(Nc3ccccc3N)cc1CC2)C(=O)OC
2,0.015,Nc1ccccc1Nc1ccc2c(c1)CCc1ccc(C(=O)NCC(O)CO)cc1C2=O (centres undefined)
3,0.015,Nc1ccccc1Nc1ccc2c(c1)CCc1ccc(C(=O)NC(CO)CO)cc1C2=O
4,0.015,COC(=O)[C@H](Cc1ccccc1)NC(=O)c1ccc2c(c1)C(=O)c1ccc(Nc3ccc(F)cc3F)cc1CC2
5,0.014,Nc1ccccc1Nc1ccc2c(c1)CCc1ccc(C(=O)NCCO)cc1C2=O
6,0.013,COC(=O)[C@H](CCSC)NC(=O)c1ccc2c(c1)C(=O)c1ccc(Nc3ccccc3N)cc1CC2
7,0.012,COC(=O)[C@@H](N)CCCCNC(=O)c1ccc2c(c1)C(=O)c1ccc(Nc3ccccc3N)cc1CC2
8,0.0078,O=C(NCCc1ccc(O)cc1)c1ccc2c(c1)C(=O)c1ccc(Nc3ccc(F)cc3F)cc1CC2
9,0.0069,COC(=O)[C@H](CCSC)NC(=O)c1ccc2c(c1)C(=O)c1ccc(Nc3ccc(F)cc3F)cc1CC2
10,0.0064,O=C(NCCc1cccs1)c1ccc2c(c1)C(=O)c1ccc(Nc3ccc(F)cc3F)cc1CC2
11,0.0061,NC(=O)c1ccc2c(c1)C(=O)c1ccc(Nc3ccccc3N)cc1CC2
12,0.0056,O=C(NCCc1c[nH]cn1)c1ccc2c(c1)C(=O)c1ccc(Nc3ccc(F)cc3F)cc1CC2
13,0.0054,COC(=O)[C@@H](N)CNC(=O)c1ccc2c(c1)C(=O)c1ccc(Nc3ccc(F)cc3F)cc1CC2
14,0.0053,NCCNC(=O)c1ccc2c(c1)C(=O)c1ccc(Nc3ccccc3N)cc1CC2
15,0.0035,O=C(NCC(F)(F)F)c1ccc2c(c1)C(=O)c1ccc(Nc3ccc(F)cc3F)cc1CC2
16,0.0024,CC(C)(C)OC(=O)N1CCN(CCNC(=O)c2ccc3c(c2)C(=O)c2ccc(Nc4ccc(F)cc4F)cc2CC3)CC1
17,0.0021,COC(=O)[C@@H](N)CCCCNC(=O)c1ccc2c(c1)C(=O)c1ccc(Nc3ccc(F)cc3F)cc1CC2
18,0.0019,CC(C)(C)OC(=O)N1CCN(CCNC(=O)c2ccc3c(c2)C(=O)c2ccc(Nc4ccccc4N)cc2CC3)CC1
19,0.0012,COC(=O)CC[C@H](NC(=O)c1ccc2c(c1)C(=O)c1ccc(Nc3ccc(F)cc3F)cc1CC2)C(=O)OC

# Tested on: not listed separately
# Assay: Metabolic stability in human liver microsomes assessed as parent compound remaining incubated for 120 mins
# Type: ADME, Microsome
# Details: read-out: Stability
row,Compound,remaining at 2 h [%]
1,COC(=O)[C@@H](N)CNC(=O)c1ccc2c(c1)C(=O)c1ccc(Nc3ccc(F)cc3F)cc1CC2,12
2,COC(=O)[C@H](CCSC)NC(=O)c1ccc2c(c1)C(=O)c1ccc(Nc3ccccc3N)cc1CC2,0
3,Nc1ccccc1Nc1ccc2c(c1)CCc1ccc(C(=O)NCCO)cc1C2=O,99
4,O=C(NCCc1c[nH]c2ccccc12)c1ccc2c(c1)C(=O)c1ccc(Nc3ccc(F)cc3F)cc1CC2,71
5,O=C(NCCc1c[nH]cn1)c1ccc2c(c1)C(=O)c1ccc(Nc3ccc(F)cc3F)cc1CC2,95

# Source: ChEMBL document CHEMBL5042473 (J Med Chem, 2022)
